Laboratory results: US9265845B2, “Imaging methods using engineered integrin binding peptides” (The Board of Trustees of the Leland Stanford Junior …, priority 2006, dated 2016)
pIC50: −log10 of the molar value. No end group written: not given here.

Legend:
U87MG glioblastoma cells [1] = assay: Blocking of U87MG cell adhesion to vitronectin-coated plates; assay type: cell-based; conditions: vitronectin-coated plates
Text: (§1) The present engineered peptides may be used in a variety of ways. If the peptides are attached to a surface, they may be used to attract/recruit cells to grow on the surface. For example, the present peptides may be applied to prosthetic devices, implants, bone grafts, and the like to promote tissue growth and healing at the site. They may be attached to culture dishes and promote attachment and differentiation of cells in culture. In addition, the present engineered peptides may be used to modulate cell binding to selected integrins such as α5β1, αvβ3 and αvβ5, particularly αvβ3, by adding the peptides to a cell culture to prevent cells expressing these integrins from adhering to a substrate. […] Also, the present 2.5F, 2.5D and 1.5B peptides were tested for blocking adhesion of U87MG glioblastoma cells to fibronectin-coated plates.
(§2) In another experiment, the ability of engineered knottin peptides to block U87MG cell adhesion to vitronectin- and fibronectin-coated microtiter plates. Vitronectin is a natural ligand for several integrins, including αvβ3 and αvβ5. The RGD-containing peptides were all able to inhibit U87MG cell adhesion to vitronectin-coated plates in a dose-responsive manner. […] Fibronectin also binds to several integrins, (including αvβ3 and α5β1), but the α5β1 integrin receptor is generally selective for fibronectin.
Whether the engineered AgRP peptides could block vitronectin-mediated adhesion to the U87MG cells was tested using an analogous assay. […] The AgRP peptides may not effectively block U87MG adhesion compared to the K562-αvβ3 cells because the αvβ5 integrins co-expressed on the surface of the U87MG cells could also contribute to vitronectin-mediated adhesion and compensate for the loss of αvβ3 integrin function.

U87MG glioblastoma cells [2] = assay: Blocking of U87MG cell adhesion to fibronectin-coated plates; assay type: cell-based
Text: as §1, §2

αvβ5 integrin = αvβ5 integrin (Homo sapiens, UniProt P06756+P18084); assay: Competition of 125I-echistatin to detergent-solubilized plate-coated integrin; assay type: binding; conditions: 0.06 nM 125I echistatin, 5 nM and 50 nM peptide
Experimental: (§3) FIG. 10A through FIG. 10D is a series of histograms showing binding specificities to integrins αvβ3, αvβ5, α5β1, and αiibβ3 for engineered EETI-RGD peptides compared to controls. Error bars represent experiments performed in triplicate. Competition binding of 0.06 nM ^125I echistatin with 5 nM (black bars) and 50 nM (grey bars) unlabeled peptide to plate-coated integrins was measured. […] The engineered peptides have very little binding to αiibβ3 integrin.
(§4) This was done by competition of ^125I-echistatin to detergent-solubilized integrin receptors coated onto microtiter plates (see FIG. 10). […] This is consistent with previous studies which have shown αv integrin receptors can accommodate a wide range of RGD-containing cyclic structures. […] However, since α5β1 integrins are expressed on many tumors and are all involved in mediating angiogenesis and metastasis, a broad spectrum agent that targets all three integrins will be useful for diagnostic and therapeutic applications. With the exception of echistatin, all of the RGD-containing peptides bound weakly to the αiibβ3 receptor, showing the specificity of the present peptides for the αv and α5-containing integrin heterodimers. This characteristic is valuable for molecular imaging and therapeutic applications, since binding to αiibβ3 on platelet cells prevents blood clotting and would lead to non-specific in vivo effects.

α5β1 integrin = α5β1 integrin (Homo sapiens, UniProt P05556+P08648); assay: as above; assay type: binding; conditions: 0.06 nM 125I echistatin, 5 nM and 50 nM peptide
Experimental: as §3, §4

αvβ3 integrin = αvβ3 integrin (Homo sapiens, UniProt P05106+P06756); assay: as above; assay type: binding; conditions: 0.06 nM 125I echistatin, 5 nM and 50 nM peptide
Experimental: as §3, §4

[3] = Stability in human serum at 37° C., reversed-phase HPLC; assay type: in vitro ADME
Experimental: (§5) The stability of the knottin peptide 2.5D upon exposure to human or mouse serum at 37° C. was measured. Reversed-phase HPLC was used to quantify the amount of intact knottin peptide remaining at various times post incubation.
(§6) Nonradioactive mock-PET tracers are incubated with mouse and human serum for various time points at 37° C., and aliquots are acidified and flash frozen. The aliquots are then thawed and microcentrifuged at high speeds to remove aggregates. The soluble fraction is passed through a Sep-Pak C18 cartridge (Waters Corp), and rinsed several times with water containing 0.1% TFA (solvent A). The cartridge-bound PET-tracers are eluted with 90% acetonitrile containing 0.1% TFA, lyophilized, and resuspended in solvent A. The solution is passed through a NANOSEP (Pall Corp) 10 kDa cutoff filter and analyzed by reversed-phase HPLC to determine the amount of polypeptide-conjugate remaining.

U87MG tumor = assay: MicroPET imaging and biodistribution of radiolabeled peptides in U87MG tumor-bearing mice; assay type: in vivo, mouse; conditions: 64Cu-DOTA-labeled peptides, compared to 64Cu-DOTA-c(RGDyK)
Experimental: MicroPET imaging of tumor-bearing mice is performed on a microPET R4 rodent model scanner (Concorde Microsystems Inc, Knoxyille, Tenn.). U87MG tumor bearing mice are injected with PET imaging agent via the tail vein. At various times post injection, the mice are anesthetized with 2% isoflurane, and 10 min static scans are obtained. Images are reconstructed by a two-dimensional ordered expectation maximum subset algorithm as previously described. Regions of interest (ROI) are drawn over the tumor on decay corrected whole body images and ROI derived % injected dose per gram of tissue is determined. Statistical analysis is performed using the student's t-test for unpaired data. A 95% confidence level is used to determine statistical significance.
Female athymic mice bearing U87MG tumors were injected with 80-150 μCi of ^64Cu-DOTA-knottin 2.5D or 7-9 μCi of [^18F]-FB-E[knottin 2.5D]. Static images were taken at various timepoints post injection using a microPET R4 rodent model scanner (Concorde Microsystems Inc, Knoxyille, Tenn.). […] Uptake was also observed in the kidney as both probes cleared through the bladder.
Mice are sacrificed by exanguinations at various time points postinjection. Blood, tumor and the major organs and tissues are collected, wet-weighed and measured in a γ-counter. The % injected dose per gram is determined for each sample. For each mouse, radioactivity of the tissue samples is calibrated against a known aliquot of the injectate. Values are reported as the mean±standard deviation.
The following Table 10 quantifies the ^64Cu-DOTA knottin uptake by direct tissue sampling of the mice up to 24 hours post injection and is reported in % ID (percent injected dose)/gram. Similar results were obtained with [^18F]-FB-E[knottin 2.5D].
A U87MG glioblastoma xenograft mouse model was used. U87MG cells were maintained at 37° C. in a humidified atmosphere containing 5% CO2 in Dulbecco's modified eagle medium, 10% heat-inactivated fetal bovine serum, and penicillin-streptomycin (all from Invitrogen). Animal procedures were carried out according to a protocol by Stanford University Administrative Panels on Laboratory Animal Care. Female athymic nude mice (nu/nu), obtained at 4-6 weeks of age (Charles River Laboratories, Inc.), were injected subcutaneously in the right or left shoulder with 2×10^7 U87MG glioblastoma cells suspended in 100 μL of PBS. Mice were used for in vivo imaging studies when their tumors reached approximately 8 to 10 millimeters in diameter.
U87MG tumor-bearing mice (n=3 or more for each probe) were injected with ˜100 μCi of ^64Cu-DOTA-conjugated peptides via the tail vein and imaged with a microPET R4 rodent model scanner (Siemens Medical) using 3 or 5 min static scans. […] Images were reconstructed by a two dimensional ordered expectation maximum subset algorithm and calibrated as previously described (Wu, Y, Zhang, X, Xiong, Z, et al. microPET imaging of glioma integrin {alpha}v{beta}3 expression using (64)Cu-labeled tetrameric RGD peptide. J Nucl Med 2005; 46:1707-18). ROIs were drawn over the tumor on decay-corrected whole body images using ASIPro VM software (Siemens Medical). The mean counts per pixel per minute were obtained from the ROI and converted to counts per milliliter per minute with a calibration constant. ROIs were converted to counts/g/min, and % ID/g values were determined assuming a tissue density of 1 g/mL. No attenuation correction was performed.

in vitro = in vitro ADME; conditions: mouse serum, 37° C., read-out: peptide remaining
Text: Their larger size (˜3-4 kDa) and enhanced affinity compared to RGD-based cyclic peptides confer enhanced pharmacokinetics and biodistribution for molecular imaging and therapeutic applications. This is described in connection with FIG. 8. These RGD-miniproteins are small enough to allow for chemical synthesis and site-specific conjugation of imaging probes, radioisotopes, or chemotherapeutic agents. Furthermore, they can easily be chemically modified to further improve in vivo properties if necessary. […] The tumor is indicated by an arrow. The near infrared fluorescent Cy5.5 label study provides guidance for the preparation of these polypeptides as ^18F and ^64Cu-labeled PET imaging probes. […]
as §5
as §6, with “The aliquots are then thawed and microcentrifuged at high speeds to remove aggregates. The soluble fraction is passed through a Sep-Pak C18 cartridge (Waters Corp), and rinsed several times with water containing 0.1% TFA (solvent A).” left out

αvβ3 and αvβ5 integrins = conditions: inhibiting cell adhesion mediated by αvβ3 and αvβ5 integrins; cited from earlier work
α5β1 expressing cells = conditions: inhibiting attachment of α5β1 expressing cells to fibronectin; cited from earlier work
αiibβ3 integrin = αiibβ3 integrin (Homo sapiens, UniProt P05106+P08514); assay: Competition of 125I-echistatin to detergent-solubilized plate-coated integrin; assay type: binding; conditions: 0.06 nM 125I echistatin, 5 nM and 50 nM peptide
Experimental: as §3, §4

[4] = biological target: T1, αvβ3 integrin on U87MG glioblastoma cells (Homo sapiens, UniProt P05106+P06756); assay: 125I-echistatin competition binding to U87MG glioblastoma cells
T1 construct: host or cells: U87MG glioblastoma cells
Experimental: FIG. 9 is a graph showing normalized competition plotted against peptide concentration in an integrin-binding assay on U87MG glioblastoma cells.
U87MG glioblastoma cells, which express ˜10^5 αvβ3 integrin receptors per cell, were used for these studies. […] An EETI-based polypeptide with a scrambled RDG amino acid sequence, designated FN-RDG, served as a negative control.
Half-maximal inhibitory concentrations (IC50) […] of data measured on at least three separate days. Data for unlabeled and Cy5.5-labeled peptides are shown. Site-specific labeling of RGD miniproteins with a near-infrared optical imaging probe: The free N-terminal amine of our polypeptides was used for site-specific attachment of Cy5.5, a near infrared imaging probe.
An αvβ3 integrin receptor binding assay is performed to determine the relative affinities of the mock-PET tracers compared to their unlabeled polypeptides. Briefly, 2×10^5 U87MG glioblastoma cells are incubated with 0.06 nM ^125I-echistatin in integrin binding buffer (25 mM Tris-HCl, pH 7.4, 150 mM NaCl2 1 mM CaCl2 1 mM MgCl2, 1 mM MnCl2, 0.1% BSA), in the presence of increasing concentrations of mock-PET tracers at room temperature. After incubation for 3 h, cells are pelleted by centrifugation at 1500 RPM and washed three times in binding buffer to remove unbound ligands. The radioactivity remaining in the cell pellet is measured by γ counting. IC50 values are determined by plotting the % competition and using a four-point binding equation (Kaleidagraph) to fit the data.

[5] = tested on: fibronectin cell adhesion; conditions: cited from earlier work

## CC(C)[C@@H]1NC(=O)[C@@H]2CSSC[C@H](NC(=O)CN)C(=O)N3CCC[C@H]3C(=O)N[C@@H](CCC(N)=O)C(=O)NCC(=O)N[C@@H](CCCNC(=N)N)C(=O)NCC(=O)N[C@@H](CC(=O)O)C(=O)N[C@@H](Cc3c[nH]c4ccccc34)C(=O)N[C@@H](C)C(=O)N3CCC[C@H]3C(=O)N[C@@H]([C@@H](C)O)C(=O)N[C@@H](CO)C(=O)N[C@H]3CSSC[C@H](NC1=O)C(=O)NCC(=O)N1CCC[C@H]1C(=O)N[C@@H](CC(N)=O)C(=O)NCC(=O)N[C@@H](Cc1ccccc1)C(=O)N[C@H](C(=O)NCC(=O)O)CSSC[C@H](NC(=O)[C@H](CC(=O)O)NC(=O)[C@H](CO)NC(=O)[C@H](CC(=O)O)NC(=O)[C@H](CCC(N)=O)NC(=O)[C@H](CO)NC3=O)C(=O)N[C@@H](CCCNC(=N)N)C(=O)N[C@@H](C)C(=O)NCC(=O)N2 [2.5D]
U87MG glioblastoma cells [1]
  blocking of U87MG cell adhesion to vitronectin, in words: blocked adhesion better than controls
U87MG glioblastoma cells [2]
  blocking of U87MG cell adhesion to fibronectin, in words: only echistatin and polypeptide 2.5F blocked adhesion
αvβ5 integrin
  binding to αvβ5 integrin, in words: strongest levels of binding
α5β1 integrin
  binding to α5β1 integrin, in words: only minimal binding
αvβ3 integrin
  binding to αvβ3 integrin, in words: strongest levels of binding
[3]; 24 h, read-out: peptide remaining
  remaining at 24 h: ~90%
[3]; 96 h
  peptide remaining: approximately 70%
U87MG tumor
  liver uptake, in words: lower liver uptake
In vitro; 24 h
  remaining at 24 h: ~90%
In vitro; 96 h
  remaining at 96 h: ~70%

## ACDCRGDCFCG (disulfide (positions not given here); also: two disulfide bonds, pairing not given here)
αvβ3 and αvβ5 integrins
  fold more effective than comparable peptides with one disulfide bond: 20 fold
  fold more potent than linear RGD peptides: 200 fold

## CRGDCL (also: cyclic)
α5β1 expressing cells
  fold more potent than linear RGD hexapeptides: 10 fold

## FN-RDG: EETI-based polypeptide with a scrambled RDG amino acid sequence, negative control (GCVTGRDGSPASSCSQDSDCLAGCVCGPNGFCG)
U87MG glioblastoma cells [1]
  blocking of U87MG cell adhesion to vitronectin, in words: not able to inhibit
U87MG glioblastoma cells [2]
  blocking of U87MG cell adhesion to fibronectin, in words: not able to inhibit
αvβ5 integrin
  binding to αvβ5 integrin, in words: did not bind
α5β1 integrin
  binding to α5β1 integrin, in words: did not bind
αvβ3 integrin
  binding to αvβ3 integrin, in words: did not bind
αiibβ3 integrin
  binding to αiibβ3 integrin, in words: did not bind
[4]
  binding to U87MG cells / competition with 125I-echistatin, in words: not able to compete

## GRGD
[5]
  pIC50: 2.97
